Results reported in patent US20170368134A1, “PROTEASOME INHIBITORS FOR TREATING A DISORDER RELATED TO AN ACCUMULATION OF NON-DEGRADED ABNORMAL PROTEIN OR A CANCER” (UNIVERSITÉ D'AIX-MARSEILLE, priority 2015, published 2017).
Peptide text beside a SMILES is read from it. * marks the point of attachment. Cbz = O=C(OCc1ccccc1)*

What was measured:
lamin A mRNA = experiment: qRT-PCR of lamin A transcripts in HGPS cells; type: cell-based, human; settings: 10 μM MG132 time-course
Description: Total RNA was isolated using the RNeasy plus extraction kit (Qiagen, Valencia, Calif.). 1 μg of RNA was reverse transcribed using the High Capacity cDNA Reverse Transcription Kit (Applied Biosystems). Real time PCR amplification was carried out with the TaqMan® Gene Expression Master Mix (Applied Biosystems) on a LightCycler 480 (Roche, Germany) using pre-designed primers for GAPDH (Hs00266705_g1), Progerin (F: […] (SEQ ID NO:3) R: […] (SEQ ID NO:4) and probe: […] (SEQ ID NO:5)), Lamin A (F: […] (SEQ ID NO:6) R: […] (SEQ ID NO:7) and probe: […] (SEQ ID NO:8)) and lamin C (F: […] (SEQ ID NO:9) R: […] (SEQ ID NO:10) and probe: […] (SEQ ID NO:11)) (Applied Biosystems) using the program: UNG incubation at 50° C. for 2 minutes, initial denaturation at 95° C. for 10 minutes, 40 cycles of amplification: denaturation at 95° C. for 15 seconds and annealing at 60° C. for 1 minute. All PCR reactions were performed in triplicate. Threshold cycle (Ct) values were used to calculate relative mRNA expression by the 2-ΔΔ^T relative quantification method with normalization to GAPDH expression.

[1] = tested on: wild-type first instar larvae; experiment: Toxicity of MG132 fed to Drosophila larvae; type: in vivo; settings: 600 μM MG132 (in 0.2% DMSO) in the fly medium, 25° C.
Description: (A) The toxicity of MG132 fed to larvae was determined by transferring 80 wild-type first instar larvae into vials containing 5 ml of instant Drosophila medium reconstituted either with increasing concentrations of drug in DMSO, or DMSO alone.
Drug supplemented food was prepared as follows. Instant Drosophila medium (Carolina Biological Supply Company) was reconstituted in each vial with a solution of 1% yeast in water, supplemented with either increasing concentrations of drug solubilized in DMSO (dimethyl sulfoxide), or DMSO alone. MG132 was purchased from Santa Cruz Biotechnology (SC-201270). Each vial contained 5 ml or 2.5 ml of reconstituted medium, to raise larvae or adults, respectively. Individuals were fed with the drug from larval stages. 70 to 80 first instar larvae were transferred per vial and developed in the same vial up to adulthood; adults were transferred in a new vial with the same concentration of drug. To determine drug toxicity, 80 first instar larvae were transferred into vials containing drug- or DMSO alone-supplemented medium. Individuals reaching adulthood were scored. Abnormal wing posture was quantified by collecting adult males at birth, pooling five males per vial and scoring abnormal wing position each day by direct observation of the flies through the vials, without anesthesia.

lamin C = experiment: Western blot of lamin C protein in HGPS fibroblasts; type: cell-based, human; settings: 48 h treatment with MG132 (10 μM)
Description: Total fibroblast proteins were extracted in 200 μL of NP40 Cell Lysis buffer (Invitrogen, Carlsbad, Calif.) containing Protease and Phosphatase Inhibitor Cocktail (Thermo Scientific). Alternatively, cells were lysed with urea (8 M urea, 5 mM dithiothreitol, 150 mM NaCl, 50 mM Tris-Cl pH 7.5, protease and phosphatase Inhibitor Cocktail (Thermo Scientific)). Cells were sonicated twice (30 sec each), incubated at 4° C. for 30 minutes and then centrifuged at 10,000 g for 10 minutes. Protein concentration was evaluated with the bicinchoninic acid technique (Pierce BCA Protein Assay Kit), absorbance at 562 nm is measured using nanodrop 1000 (Thermo Fisher Scientific Inc.) Equal amounts of proteins (40 μg) were loaded onto 10% Tis-Glycine gel (Criterion™ XT precast gel) using XT Tricine running Buffer (Biorad, USA). After electrophoresis, gels were electro transferred onto nitrocellulose membranes or Immobilon-FL polyvinylidene fluoride membranes (Millipore), blocked in Odyssey Blocking Buffer diluted 1:1 in PBS for 1 hour at room temperature, and incubated overnight at 4° C. or 2 hours at room temperature with various primary antibodies. […]

progerin [2] = experiment: Progerin levels in HGPS iPS-derived MSC and VSMC; type: cell-based, human; settings: data not shown
Description: (§1) Generation of induced pluripotent stem cells (iPS) by reprogramming was carried out using fibroblasts isolated from HGPS patient biopsies performed in the Assistance Publique Hopitaux de Marseille (13-8243) or provided by Coriell Institute (Camden, USA) (AG01972). Cell lines were reprogrammed to iPSC using Yamanaka's original method based on retrovirus-mediated transfection of four transcription factors, namely Oct3/4, Sox2, c-Myc, and Klf4 (41). The iPSC lines were amplified up to the 15th passage before differentiation.
(§2) HGPS iPSC were grown on STO mouse fibroblasts, inactivated with […] mitomycin C, seeded at 30,000/cm2 and grown as previously described (42). For differentiation, iPSC were differentiated into mesenchymal stem cells (MSC-iPSC) using directed protocols for differentiation previously published (43-45). VSMC were obtained from iPSC by fluorescent-activated cell sorting (FACS) separation of CD31+ cells (46).
To determine whether MG132 also influences the level of progerin in other cell lineages, the inventors generated iPSC from HGPS patients' fibroblasts. Mesenchymal Stem Cells (MSC) and Vascular Smooth Muscle Cells (VSMC) derived from HGPS iPSC presented the commonly described abnormalities of HGPS fibroblasts, namely, loss of proliferation capacities, premature senescence and nuclear blebbing (69, 70). […]

progerin [3] = experiment: Western blot of progerin levels in HGPS fibroblasts; type: cell-based, human; settings: for reduction in progerin amounts: normalized with tubulin, vs DMSO-treated HGPS cells
Description: HGPS fibroblasts (AG01972: person, AG11498: person) were obtained from the Coriell Cell Repository. Cells were cultured in Dulbecco's modified Eagle's medium (Life Technologies) supplemented with 15% fetal bovine serum (Life Technologies), 2 mM L-glutamine (Life Technologies) and 1× penicillin-streptomycin (Life Technologies) at 37° C. in a humidified atmosphere containing 5% CO2. […]
Total fibroblast proteins were extracted in 200 μL of NP40 Cell Lysis buffer (Invitrogen, Carlsbad, Calif.) containing Protease and Phosphatase Inhibitor Cocktail (Thermo Scientific). Alternatively, cells were lysed with urea (8 M urea, 5 mM dithiothreitol, 150 mM NaCl, 50 mM Tris-Cl pH 7.5, protease and phosphatase Inhibitor Cocktail (Thermo Scientific)). Cells were sonicated twice (30 sec each), incubated at 4° C. for 30 minutes and then centrifuged at 10,000 g for 10 minutes. Protein concentration was evaluated with the bicinchoninic acid technique (Pierce BCA Protein Assay Kit), absorbance at 562 nm is measured using nanodrop 1000 (Thermo Fisher Scientific Inc.) Equal amounts of proteins (40 μg) were loaded onto 10% Tis-Glycine gel (Criterion™ XT precast gel) using XT Tricine running Buffer (Biorad, USA). After electrophoresis, gels were electro transferred onto nitrocellulose membranes or Immobilon-FL polyvinylidene fluoride membranes (Millipore), blocked in Odyssey Blocking Buffer diluted 1:1 in PBS for 1 hour at room temperature, and incubated overnight at 4° C. or 2 hours at room temperature with various primary antibodies. Blots were washed with TBS-T buffer [20 mM tris (pH 7.4), 150 mM NaCl, and 0.05% Tween 20] and incubated with 1:10,000 IR-Dye 800-conjugated secondary donkey anti-goat or IR-Dye 700-conjugated secondary anti-mouse antibodies (LI-COR Biosciences) in Odyssey blocking buffer (LI-COR Biosciences). For IR-Dye 800 and IR-Dye 700 detection, an Odyssey Infrared Imaging System (LI-COR Biosciences) was used. GAPDH, α-tubulin or β-actin were used as a total cellular protein loading control.

SRSF-1 = SRSF-1 levels in HGPS fibroblasts, iPS-MSC and iPS-VSMC; type: cell-based, human; settings: data not shown
Description: as §1, §2

For `CC(C)C[C@@H](C=O)NC(=O)[C@H](CC(C)C)NC(=O)[C@H](CC(C)C)NC(=O)OCc1ccccc1` [MG132, Z-Leu-Leu-Leu-al] (Cbz-Leu-Leu-Leu-aldehyde), the “lamin A transcript levels” value (lamin A mRNA) was “significant decrease of lamin A transcripts”, the “viability (flies reaching adulthood)” value [1] was “not detrimental for viability” and the “lamin C protein levels” value (lamin C) was “increased”. For the same compound, the progerin levels (progerin [2]; HGPS fibroblasts, iPS-MSC and iPS-VSMC) was “decreased”, the “concentration from which progerin reduction is significant” value (progerin [2]; iPS-VSMC, progerin immunostaining) was ≥ 1.25 µM and the “reduction in progerin amounts” value (progerin [3]; 10 μM MG132, 6 h) was 31%. The “reduction in progerin amounts” value (progerin [3]; 10 μM MG132, 24 h) was 58%, the “reduction in progerin amounts” value (progerin [3]; 10 μM MG132, 48 h) was 65% and the “progerin level at longer treatment” value (progerin [3]; cells solubilized with urea, 72 h of MG132 treatment) was “progerin reappears after 72 h of treatment”. The SRSF-1 levels (SRSF-1) was “decreased”.
